PubChem BioAssay AID248 (DTP/NCI, 2004)
Values joined by “and” are separate entries in the source; they are usually repeats but may differ in a detail not shown here. Equal values may be shown once. Inconclusive results and toxic doses are left out.

Test system: L1210 leukemia ip in BDF1 mice, survival T/C
Assay: NCI In Vivo Anticancer Drug Screen. Data for tumor model L1210 Leukemia (intraperitoneal) in B6D2F1 (BDF1) mice
Settings: endpoint: mean survival time, higher = longer survival
In short: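 Value reflects the ratio of survival in compound-treated mice to survival in vehicle-treated controls, with both groups carrying the same transplanted tumor.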

[1] = dose: 100.0 mg/kg/injection, schedule: Q01DX001 (ip), vehicle: saline
[2] = dose: 200.0 mg/kg/injection, schedule: Q01DX001 (ip), vehicle: saline
[3] = dose: 400.0 mg/kg/injection, schedule: Q01DX001 (ip), vehicle: saline
[4] = dose: 100.0 mg/kg/injection, schedule: Q01DX001 (ip), vehicle: Klucel (hydroxypropylcellulose) (HPC)
[5] = dose: 200.0 mg/kg/injection, schedule: Q01DX001 (ip), vehicle: Klucel (hydroxypropylcellulose) (HPC)
[6] = dose: 400.0 mg/kg/injection, schedule: Q01DX001 (ip), vehicle: Klucel (hydroxypropylcellulose) (HPC)
[7] = dose: 100.0 mg/kg/injection, schedule: Q01DX009 (ip), vehicle: Klucel (hydroxypropylcellulose) (HPC)
[8] = dose: 200.0 mg/kg/injection, schedule: Q01DX009 (ip), vehicle: Klucel (hydroxypropylcellulose) (HPC)
[9] = dose: 400.0 mg/kg/injection, schedule: Q01DX009 (ip), vehicle: Klucel (hydroxypropylcellulose) (HPC)
[10] = dose: 100.0 mg/kg/injection, schedule: Q04DX003 (ip), vehicle: Klucel (hydroxypropylcellulose) (HPC)
[11] = dose: 200.0 mg/kg/injection, schedule: Q04DX003 (ip), vehicle: Klucel (hydroxypropylcellulose) (HPC)
[12] = dose: 400.0 mg/kg/injection, schedule: Q04DX003 (ip), vehicle: Klucel (hydroxypropylcellulose) (HPC)
[13] = dose: 100.0 mg/kg/injection, schedule: Q04DX003 (ip), vehicle: saline
[14] = dose: 200.0 mg/kg/injection, schedule: Q04DX003 (ip), vehicle: saline
[15] = dose: 400.0 mg/kg/injection, schedule: Q04DX003 (ip), vehicle: saline
[16] = dose: 25.0 mg/kg/injection, schedule: Q04DX002 (ip), vehicle: Klucel (hydroxypropylcellulose) (HPC)
[17] = dose: 50.0 mg/kg/injection, schedule: Q04DX002 (ip), vehicle: Klucel (hydroxypropylcellulose) (HPC)
[18] = dose: 100.0 mg/kg/injection, schedule: Q04DX002 (ip), vehicle: Klucel (hydroxypropylcellulose) (HPC)
[19] = dose: 100.0 mg/kg/injection, schedule: Q01DX001 (ip), vehicle: carboxymethylcellulose (CMC)
[20] = dose: 200.0 mg/kg/injection, schedule: Q01DX001 (ip), vehicle: carboxymethylcellulose (CMC)

## Cn1c(=O)c2[nH]c(CC3CCCC3)nc2n(C)c1=O
dose: 50.0 mg/kg/injection, schedule: Q01DX001 (ip), vehicle: saline
  T/C: 104 % of control
[1]
  T/C: 104 % of control
[2]
  T/C: 101 % of control
[3]
  T/C: 95 % of control

## Nc1nc([Se])c2cc[nH]c2n1
dose: 12.5 mg/kg/injection, schedule: Q01DX009 (ip), vehicle: water
  T/C: 107 % of control
dose: 25.0 mg/kg/injection, schedule: Q01DX009 (ip), vehicle: water
  T/C: 102 % of control
dose: 25.0 mg/kg/injection, schedule: Q04DX003 (ip), vehicle: water
  T/C: 97 % of control
dose: 50.0 mg/kg/injection, schedule: Q01DX009 (ip), vehicle: water
  T/C: 104 % of control
dose: 50.0 mg/kg/injection, schedule: Q04DX003 (ip), vehicle: water
  T/C: 102 % of control
dose: 100.0 mg/kg/injection, schedule: Q04DX003 (ip), vehicle: water
  T/C: 94 % of control and 95 % of control

## CCOc1ccc(Nc2ncnc3nc[nH]c23)cc1CN(CCCl)C(C)CCl (stereo unspecified)
dose: 1.0 mg/kg/injection, schedule: Q01DX Z (ip), vehicle: saline
  T/C: 112 % of control
dose: 2.0 mg/kg/injection, schedule: Q01DX Z (ip), vehicle: saline
  T/C: 111 % of control
dose: 4.0 mg/kg/injection, schedule: Q01DX Z (ip), vehicle: saline
  T/C: 97 % of control

## N#Cc1nc(CSc2ccc(Cl)cc2)cnc1N
[4]
  T/C: 95 % of control
[5]
  T/C: 92 % of control
[6]
  T/C: 89 % of control

## CC(C)CCCC(C)C1CCC2C3CC(=O)OC45CC4CCC5(C)C3CCC12C (stereo unspecified)
dose: 100.0 mg/kg/injection, schedule: Q01DX001 (ip), vehicle: acetone
  T/C: 94 % of control
dose: 100.0 mg/kg/injection, schedule: Q01DX009 (ip), vehicle: acetone
  T/C: 89 % of control
dose: 200.0 mg/kg/injection, schedule: Q01DX001 (ip), vehicle: acetone
  T/C: 89 % of control
dose: 200.0 mg/kg/injection, schedule: Q01DX009 (ip), vehicle: acetone
  T/C: 91 % of control
dose: 400.0 mg/kg/injection, schedule: Q01DX001 (ip), vehicle: acetone
  T/C: 91 % of control
dose: 400.0 mg/kg/injection, schedule: Q01DX009 (ip), vehicle: acetone
  T/C: 90 % of control

## Cc1cc(Cl)c(Cl)cc1NC(=O)c1c(Br)c(Br)c(Br)c(Br)c1C(=O)O
[7]
  T/C: 108 % of control
[8]
  T/C: 96 % of control
[9]
  T/C: 95 % of control

## S=c1[nH]nc2ccccn12
[10]
  T/C: 100 % of control
[11]
  T/C: 94 % of control
[12]
  T/C: 94 % of control

## O=S(=O)(Nc1ccc(N(c2c(Cl)c(Cl)c(NS(=O)(=O)c3ccccc3)c(Cl)c2Cl)S(=O)(=O)c2ccccc2)cc1)c1ccccc1
[4]
  T/C: 93 % of control
[5]
  T/C: 96 % of control
[6]
  T/C: 95 % of control

## CC1(C)CN1P(=O)(N1CC1(C)C)N1CC1(C)C (stereo unspecified)
dose: 1.25 mg/kg/injection, schedule: Q01DX009 (ip), vehicle: saline
  T/C: 105 % of control
dose: 2.5 mg/kg/injection, schedule: Q01DX009 (ip), vehicle: saline
  T/C: 111 % of control
dose: 5.0 mg/kg/injection, schedule: Q01DX009 (ip), vehicle: saline
  T/C: 107 % of control
dose: 6.0 mg/kg/injection, schedule: Q01DX009 (ip), vehicle: saline
  T/C: 182 % of control
dose: 12.0 mg/kg/injection, schedule: Q01DX009 (ip), vehicle: saline
  T/C: 151 % of control
dose: 20.0 mg/kg/injection, schedule: Q01DX009 (ip), vehicle: saline
  T/C: 194 % of control
dose: 22.0 mg/kg/injection, schedule: Q01DX009 (ip), vehicle: saline
  T/C: 222 % of control
dose: 33.0 mg/kg/injection, schedule: Q01DX009 (ip), vehicle: saline
  T/C: 213 % of control
dose: 40.0 mg/kg/injection, schedule: Q01DX009 (ip), vehicle: saline
  T/C: 269 % of control
dose: 50.0 mg/kg/injection, schedule: Q01DX009 (ip), vehicle: saline
  T/C: 204 % of control
dose: 75.0 mg/kg/injection, schedule: Q01DX009 (ip), vehicle: saline
  T/C: 95 % of control
dose: 112.5 mg/kg/injection, schedule: Q01DX001 (ip), vehicle: saline
  T/C: 184 % of control
dose: 150.0 mg/kg/injection, schedule: Q01DX001 (ip), vehicle: saline
  T/C: 225 % of control and 86 % of control

## CNc1nnnn1Cc1ccccc1
[13]
  T/C: 105 % of control
[14]
  T/C: 94 % of control
[15]
  T/C: 97 % of control

## COC(=O)C1OC1c1cc(OC)ccc1OC (stereo unspecified)
dose: 100.0 mg/kg/injection, schedule: Q01DX001 (ip), vehicle: saline with Tween-80
  T/C: 102 % of control
[13]
  T/C: 102 % of control
dose: 200.0 mg/kg/injection, schedule: Q01DX001 (ip), vehicle: saline with Tween-80
  T/C: 103 % of control
[14]
  T/C: 100 % of control
dose: 400.0 mg/kg/injection, schedule: Q01DX001 (ip), vehicle: saline with Tween-80
  T/C: 89 % of control
[15]
  T/C: 97 % of control

## CCN(CC)CCNC(=O)c1c2nc3c(C(=O)NCCN(CC)CC)ccc(C)c3oc-2c(C)c(=O)c1N
[16]
  T/C: 101 % of control
[17]
  T/C: 97 % of control
dose: 75.0 mg/kg/injection, schedule: Q01DX001 (ip), vehicle: carboxymethylcellulose (CMC)
  T/C: 105 % of control
[18]
  T/C: 94 % of control

## O=[N+]([O-])c1ccc(Cl)c(OCCCCOc2ccc(S(=O)(=O)F)cc2)c1
[10]
  T/C: 90 % of control
[11]
  T/C: 94 % of control

## Cn1nc(SCc2ccccc2)c(=O)n(C(c2ccccc2)c2ccccc2)c1=O
[19]
  T/C: 104 % of control
[20]
  T/C: 93 % of control

## O=S(=O)(/N=C1C=C/C(=N/S(=O)(=O)c2ccccc2)C2C3C=CC(C3)C/12)c1ccccc1 (stereo unspecified)
[7]
  T/C: 109 % of control
[10]
  T/C: 94 % of control
[8]
  T/C: 103 % of control
[11]
  T/C: 97 % of control
[9]
  T/C: 95 % of control
[12]
  T/C: 92 % of control

## Cc1nc(N)[nH]c(=O)c1CCCNS(=O)(=O)c1ccc(CNC(=O)CBr)cc1
dose: 37.5 mg/kg/injection, schedule: Q01DX001 (ip), vehicle: Klucel (hydroxypropylcellulose) (HPC)
  T/C: 107 % of control
dose: 75.0 mg/kg/injection, schedule: Q01DX001 (ip), vehicle: Klucel (hydroxypropylcellulose) (HPC)
  T/C: 94 % of control
dose: 150.0 mg/kg/injection, schedule: Q01DX001 (ip), vehicle: Klucel (hydroxypropylcellulose) (HPC)
  T/C: 96 % of control

## N#Cc1ccc(/C=N\NC(=O)CCCC(=O)N/N=C/c2ccc(C#N)cc2)cc1
dose: 50.0 mg/kg/injection, schedule: Q01DX001 (ip), vehicle: other
  T/C: 91 % of control
dose: 100.0 mg/kg/injection, schedule: Q01DX001 (ip), vehicle: other
  T/C: 91 % of control
dose: 400.0 mg/kg/injection, schedule: Q01DX001 (ip), vehicle: other
  T/C: 91 % of control

## CCCCOCCCNC(F)(F)C(=O)Nc1ccc(S(=O)(=O)c2ccc(NC(=O)C(F)(F)NCCCOCCCC)cc2)cc1
[1]
  T/C: 113 % of control
[2]
  T/C: 97 % of control
[3]
  T/C: 94 % of control

## O=C(C[n+]1ccc(-c2ccccc2)cc1)c1ccccc1
[13]
  T/C: 109 % of control
[14]
  T/C: 105 % of control

## O=C(c1ccc([N+](=O)[O-])cc1)N1CC1Cc1ccccc1 (stereo unspecified)
[4]
  T/C: 89 % of control
[5]
  T/C: 89 % of control

## O=C1C(OC(=O)c2ccccc2)=C(c2ccc(O)cc2)C(=O)C(OC(=O)c2ccccc2)=C1c1ccc(O)cc1
dose: 12.5 mg/kg/injection, schedule: Q01DX Z (ip), vehicle: carboxymethylcellulose (CMC)
  T/C: 94 % of control
dose: 25.0 mg/kg/injection, schedule: Q01DX Z (ip), vehicle: carboxymethylcellulose (CMC)
  T/C: 94 % of control
dose: 50.0 mg/kg/injection, schedule: Q01DX Z (ip), vehicle: carboxymethylcellulose (CMC)
  T/C: 105 % of control
dose: 100.0 mg/kg/injection, schedule: Q01DX Z (ip), vehicle: carboxymethylcellulose (CMC)
  T/C: 102 % of control

## O=CC(CCN1CCCCC1)(CCN1CCCCC1)c1cccc2ccccc12
[16]
  T/C: 107 % of control
[17]
  T/C: 100 % of control
[7]
  T/C: 105 % of control
[18]
  T/C: 98 % of control

## Nc1c(Cl)c(Cl)c2c(c1Cl)/C(=N/O)c1cc(Cl)ccc1-2
[19]
  T/C: 95 % of control
[20]
  T/C: 95 % of control
dose: 400.0 mg/kg/injection, schedule: Q01DX001 (ip), vehicle: carboxymethylcellulose (CMC)
  T/C: 103 % of control
